From US20230116972A1, “CD38 MODULATORS AND METHODS OF USE THEREOF” (Cytokinetics, Inc., priority 2021, published 2023) come the findings set out here.

For experiment [1], the target named is T1, endogenous CD38 in HL60 cells (Homo sapiens, UniProt P28907).
T1 construct: endogenous in cells; host or cells: HL60 (leukemic cells, treated with all-trans retinoic acid)
T1 sequence (P28907 1-300): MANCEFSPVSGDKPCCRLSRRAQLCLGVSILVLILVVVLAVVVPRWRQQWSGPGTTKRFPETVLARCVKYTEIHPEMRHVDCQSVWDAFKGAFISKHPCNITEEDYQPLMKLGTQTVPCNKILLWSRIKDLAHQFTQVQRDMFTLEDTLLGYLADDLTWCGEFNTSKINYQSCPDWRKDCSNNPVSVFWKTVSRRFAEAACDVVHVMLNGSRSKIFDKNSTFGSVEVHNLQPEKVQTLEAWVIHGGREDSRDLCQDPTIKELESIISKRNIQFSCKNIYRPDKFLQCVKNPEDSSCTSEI
Briefly: cellular CD38 assay in HL60 cells (cellular NAD levels). The format is cell-based. To be noted: all-trans retinoic acid, 24 hours, read-out: hCD38 HL60 ATRA NAD Cell Diaphorase IC50. Here is the method:
The compounds described herein were also assayed for their ability to inhibit the endogenous CD38 in a native cellular environment in the cellular CD38 assay, which measures the ability of the compound to modulate cellular NAD levels. […] The assays were initiated by plating 20 μL of HL60 cells in culture medium, at a density of 20000 cells per well to a 384-well Corning™ Multiwell Plates. Compounds in DMSO were added to the plates in a volume of 120 nL using the Labcyte Echo Liquid Handlers. […] The plates are then incubated for 24 hours. 50 μL of a readout-solution containing 0.2 U/mL Diaphorase enzyme, 40 uM resazurin, 10 uM FMN, 0.8 U/mL Alcohol dehydrogenase, 3% ethanol, 0.4 mg/mL bovine serum albumin, 0.2% Triton X-100 in 100 mM Tris-HCl, 30 mM EDTA, pH 8.4. The plates were read for fluorescence (Excitation/Emission=540 nm/590 nm) using an EnVision plate reader after 60 mins of incubation at ambient temperature. Note that, in Table 5, the “Compound No” corresponds to the compound numbers in Table 1.

The target of a further experiment is T2, mouse CD38 (Mus musculus, UniProt P56528).
T2 sequence (P56528 1-304): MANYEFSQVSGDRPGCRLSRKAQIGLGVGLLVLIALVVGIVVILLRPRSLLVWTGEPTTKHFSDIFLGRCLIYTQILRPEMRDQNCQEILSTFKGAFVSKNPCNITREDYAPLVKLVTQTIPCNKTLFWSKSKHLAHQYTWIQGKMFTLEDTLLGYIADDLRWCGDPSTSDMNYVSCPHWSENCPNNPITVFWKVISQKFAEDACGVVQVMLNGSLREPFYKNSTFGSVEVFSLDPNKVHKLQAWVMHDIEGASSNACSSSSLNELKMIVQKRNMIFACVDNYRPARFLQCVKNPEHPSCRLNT
Briefly: mouse recombinant CD38 enzyme assay (hydrolysis of NAD+). Format: biochemical. To be noted: read-out: mCD38 BioChem IC50. The essentials: (§1)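 Residual NAD+ after 60 min of cell-free hydrolysis by recombinant mouse or human CD38 at ambient temperature, measured over a dose range. Detection used ADH conversion to NADH, then diaphorase-coupled resazurin-to-resorufin fluorescence (Ex/Em 540/590 nm).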

Another experiment addresses T3, human CD38 (Homo sapiens, UniProt P28907).
T3 sequence (P28907 1-300): T1 sequence (P28907 1-300)
Briefly: human recombinant CD38 enzyme assay (hydrolysis of NAD+). To be noted: human recombinant CD38, 0.4 nM enzyme, 62.5 μM NAD+; read-out: hCD38 BioChem IC50. The format is biochemical. The essentials:
as §1

For the compound `O=C(Nc1cccnc1)c1cc(-n2ccnc2)ccn1` [Compound 1, 4-(1H-imidazol-1-yl)-N-(pyridin-3-yl)picolinamide], the results for the IC50 (in experiment [1]; on mouse CD38; at human CD38) were 2 µM, 358 nM and 243 nM, respectively.

Take `Cc1ccc(NC(=O)c2cc(-n3ccnc3)ccn2)cn1` [Compound 2, 4-(1H-imidazol-1-yl)-N-(6-methylpyridin-3-yl)picolinamide]: the IC50 (usually the concentration needed to halve the response being measured) in experiment [1] was determined as 3.06 µM; at mouse CD38 it was 1010 nM; at human CD38 it was 345 nM.

`O=C(Nc1cncc(F)c1)c1cc(-n2ccnc2)ccn1` [Compound 3, N-(5-fluoropyridin-3-yl)-4-(1H-imidazol-1-yl)picolinamide]: the IC50 in experiment [1] was determined as 6.78 µM; at mouse CD38, 234 nM; at human CD38, 1090 nM.

Consider `O=C(Nc1ccccn1)c1cc(-n2ccnc2)ccn1` [Compound 4, 4-(1H-imidazol-1-yl)-N-(pyridin-2-yl)picolinamide], for which the IC50 in experiment [1] is 8.51 µM; on mouse CD38 it was 491 nM; on human CD38, 1130 nM.

As for `O=C(Nc1ccccc1)c1cc(-n2ccnc2)ccn1` [Compound 5, 4-(1H-imidazol-1-yl)-N-phenylpicolinamide], the IC50 in experiment [1] was 7.82 µM; on mouse CD38, 420 nM; on human CD38, 313 nM.

Regarding `O=C(Nc1ccc(C(F)(F)F)nc1)c1cc(-n2ccnc2)ccn1` [Compound 6, 4-(1H-imidazol-1-yl)-N-(6-(trifluoromethyl)pyridin-3-yl)picolinamide], the IC50 in experiment [1] stood at 8.69 µM; on mouse CD38, 1580 nM; on human CD38, 352 nM.

For `O=C(Nc1ccncc1)c1cc(-n2ccnc2)ccn1` [Compound 7, 4-(1H-imidazol-1-yl)-N-(pyridin-4-yl)picolinamide], the IC50 in experiment [1] turned out to be 4.46 µM; on mouse CD38, 223 nM; on human CD38 it was 549 nM.

On to `O=C(Nc1cccnc1)c1cccc(-n2ccnc2)c1` [Compound 9, 3-(1H-imidazol-1-yl)-N-(pyridin-3-yl)benzamide], for which the IC50 was found to be 5.98 µM in experiment [1], 432 nM at mouse CD38 and 1240 nM on human CD38.

For `O=C(Nc1cccnc1)c1ccnc(-n2ccnc2)c1` [Compound 10, 2-(1H-imidazol-1-yl)-N-(pyridin-3-yl)isonicotinamide], the IC50 was determined as 4.35 µM in experiment [1], 433 nM on mouse CD38 and 1190 nM on human CD38.

In the case of `O=C(Nc1cccnc1)c1cccc(-c2cncs2)n1` [Compound 11, N-(pyridin-3-yl)-6-(thiazol-5-yl)picolinamide], the IC50 amounted to 8.05 µM in experiment [1], 741 nM at mouse CD38 and 2110 nM at human CD38.

As for `O=C(NC1CCOCC1)c1cccc(-n2ccnc2)n1` [Compound 12, 6-(1H-imidazol-1-yl)-N-(tetrahydro-2H-pyran-4-yl)picolinamide], the values for the IC50 (in experiment [1]; on mouse CD38; at human CD38) were 3.99 µM, 122 nM and 296 nM, respectively.

Turning to `Cn1cncc1-c1nc(C(=O)Nc2ccc(OC(F)F)nc2)cc(C2CCC(F)(F)CC2)n1` [Compound 342, 6-(4,4-difluorocyclohexyl)-N-(6-(difluoromethoxy)pyridin-3-yl)-2-(1-methyl-1H-imidazol-5-yl)pyrimidine-4-carboxamide], the IC50 on mouse CD38 is 2.9 nM; at human CD38 it was 19.9 nM.

For the compound `Cn1cncc1-c1ccnc(C(=O)N[C@H]2CC[C@H](OCC(F)(F)F)CC2)n1` [Compound 343, 4-(1-methyl-1H-imidazol-5-yl)-N-((1r,4r)-4-(2,2,2-trifluoroethoxy)cyclohexyl)pyrimidine-2-carboxamide], the IC50 on mouse CD38 was 13.6 nM; at human CD38, 24.3 nM.

As to `COCCO[C@H]1CC[C@H](NC(=O)c2nccc(-c3cncn3C)n2)C1` [Compound 344, N-((1S,3S)-3-(2-methoxyethoxy)cyclopentyl)-4-(1-methyl-1H-imidazol-5-yl)pyrimidine-2-carboxamide], the results for the IC50 on mouse CD38 and on human CD38 were 46.9 nM and 417 nM, respectively.

`Cn1cncc1-c1nc(C(=O)Nc2ccc(C(F)(F)F)nc2)cc(C2CC3(COC3)C2)n1` [Compound 345, 2-(1-methyl-1H-imidazol-5-yl)-6-(2-oxaspiro[3.3]heptan-6-yl)-N-(6-(trifluoromethyl)pyridin-3-yl)pyrimidine-4-carboxamide]: the IC50 at mouse CD38 worked out at 1 nM; at human CD38 it was 3.3 nM.

Regarding `CO[C@H]1CC[C@H](NC(=O)c2nc(C(F)F)cc(-n3ccnc3)n2)CC1` [Compound 346, 4-(difluoromethyl)-6-(1H-imidazol-1-yl)-N-((1r,4r)-4-methoxycyclohexyl)pyrimidine-2-carboxamide], the values for the IC50 at mouse CD38 and at human CD38 were 30.1 nM and 109 nM, respectively.

For `Cn1cncc1-c1cc(C(F)F)nc(C(=O)N[C@H]2CC[C@H](O)CC2)n1` [Compound 347, 4-(difluoromethyl)-N-((1r,4r)-4-hydroxycyclohexyl)-6-(1-methyl-1H-imidazol-5-yl)pyrimidine-2-carboxamide], the IC50 on mouse CD38 was determined as 6.2 nM; at human CD38, 81.9 nM.

`Cn1cncc1-c1nc(C(=O)Nc2ccc(C(F)F)nc2)cc(C2CC3(COC3)C2)n1` [Compound 348, N-(6-(difluoromethyl)pyridin-3-yl)-2-(1-methyl-1H-imidazol-5-yl)-6-(2-oxaspiro[3.3]heptan-6-yl)pyrimidine-4-carboxamide]: the IC50 on mouse CD38 was 1 nM; on human CD38 it was 2.5 nM.

Consider `O=C(N[C@H]1CC[C@H](O)CC1)c1nc(C(F)F)cc(-n2ccnc2)n1` [Compound 349, 4-(difluoromethyl)-N-((1r,4r)-4-hydroxycyclohexyl)-6-(1H-imidazol-1-yl)pyrimidine-2-carboxamide], for which the IC50 came to 28.2 nM on mouse CD38 and 128 nM at human CD38.

For the compound `CO[C@H]1CC[C@H](NC(=O)c2nc(-c3cncn3C)cc(C(F)F)n2)CC1` [Compound 350, 4-(difluoromethyl)-N-((1r,4r)-4-methoxycyclohexyl)-6-(1-methyl-1H-imidazol-5-yl)pyrimidine-2-carboxamide], the IC50 was found to be 11.3 nM on mouse CD38 and 107 nM at human CD38.

On to `COCCO[C@@H]1CC[C@@H](NC(=O)c2nccc(-c3cncn3C)n2)C1` [Compound 351, N-((1R,3R)-3-(2-methoxyethoxy)cyclopentyl)-4-(1-methyl-1H-imidazol-5-yl)pyrimidine-2-carboxamide], for which the IC50 on mouse CD38 was 267 nM; on human CD38, 676 nM.

`COCCO[C@@H]1CC[C@@H](NC(=O)c2cc(C3CCOCC3)nc(-c3cncn3C)n2)C1` [Compound 352, N-((1R,3R)-3-(2-methoxyethoxy)cyclopentyl)-2-(1-methyl-1H-imidazol-5-yl)-6-(tetrahydro-2H-pyran-4-yl)pyrimidine-4-carboxamide]: the results for the IC50 at mouse CD38 and on human CD38 were 20.6 nM and 25.4 nM, respectively.

In the case of `COCCO[C@H]1CC[C@H](NC(=O)c2cc(C3CCOCC3)nc(-c3cncn3C)n2)C1` [Compound 353, N-((1S,3S)-3-(2-methoxyethoxy)cyclopentyl)-2-(1-methyl-1H-imidazol-5-yl)-6-(tetrahydro-2H-pyran-4-yl)pyrimidine-4-carboxamide], the half-maximal inhibitory concentration (IC50) is 4.2 nM on mouse CD38 and 20.8 nM at human CD38.

Regarding `O=C(Nc1ccc(OC(F)F)nc1)c1nccc(-n2ccnc2)n1` [Compound 354, N-(6-(difluoromethoxy)pyridin-3-yl)-4-(1H-imidazol-1-yl)pyrimidine-2-carboxamide], the figures for the IC50 at mouse CD38 and on human CD38 were 16.9 nM and 4.2 nM, respectively.

For the compound `COc1ccc(NC(=O)c2cc(C3CCOCC3)nc(-c3cncn3C)n2)cn1` [Compound 355, N-(6-methoxypyridin-3-yl)-2-(1-methyl-1H-imidazol-5-yl)-6-(tetrahydro-2H-pyran-4-yl)pyrimidine-4-carboxamide], the IC50 was determined as 1.1 nM at mouse CD38 and 3.5 nM on human CD38.

Regarding `COc1ccc(NC(=O)c2nccc(-c3cncn3C)n2)cn1` [Compound 356, N-(6-methoxypyridin-3-yl)-4-(1-methyl-1H-imidazol-5-yl)pyrimidine-2-carboxamide], the IC50 at mouse CD38 stood at 10 nM; on human CD38, 4.3 nM.
